Test results from publication PMC7787448, “Development of an orally-administrable tumor vasculature-targeting therapeutic using annexin A1-binding D-peptides” (PLoS ONE, 2021).
Values joined by “and” are separate entries in the source; they are usually repeats but may differ in a detail not shown here. Identical values can stand only once. One block for each molecule: values may come before it. Non-standard residues stand in square brackets, D forms with d. Residues, ends and D or L forms follow the SMILES beside them. No end group written: not given here. *: point of attachment. Biotin = O=C1N[C@H]2[C@H](CS[C@H]2CCCCC(=O)*)N1

How the values were obtained:
C6-Luc brain tumor = experiment: Near infra-red fluorescence whole body imaging of IRDye-conjugated D-peptides in brain tumor-bearing mice; type: in vivo, mouse; conditions: IRDye 800CW conjugates, tail vein, nude mice with C6-Luc brain tumors, IVIS imaging 15 min to 144 h
[1] = molecular target: T1, synthetic human MC16 peptide (ANXA1 N-terminus) (Homo sapiens, UniProt P04083); experiment: Plate binding assay of biotinylated dTIT7 to MC16-coated wells (streptavidin-peroxidase, A450); conditions: N-terminal biotinylated dTIT7 added to MC16-coated plastic wells, peroxidase-streptavidin colour reaction, read-out: Kd of dTIT7 bound to WT MC16
T1 construct: chemically synthesized ANXA1 N-terminus (1–15 residues plus a cysteine at 16); purchased Bio-Synthesis (Lewisville, TX); host or cells: chemical synthesis
Method: To assess dTIT7 binding, wells of Sulfhydryl-BIND Surface Maleimide plates (Corning) were coated 20 hours with wild type (WT) and mutant L-MC16 in water at 4°C. After washing with PBS containing 0.02% Tween 20 (PBST), wells were blocked 1 hour with 10% superblock (Thermo) in PBST at room temperature. Biotinylated dTIT7 (10 μg dissolved in 10% superblock in PBST (1 mL) prepared as above was added to each well at 100 μl/well and incubated 30 min at room temperature for. After three PBST washes, 100 μl streptavidin-peroxidase (0.2 μg/ml) in 10% superblock in PBST containing 2% bovine serum albumin was added to each well and incubated 30 min. After three PBST washes, 100 μL of the peroxidase substrate one-step-TMB (Thermo) was added and incubated until the color developed. The reaction was stopped by adding 100 μl 2N sulfuric acid, and absorbance at 450 nm monitored using an ELISA plate reader. […]
Fig 2 Binding of dTIT7 to an ANXA1 N-terminal domain peptide or to full-length ANXA1 protein. […] In A and B, biotinylated dTIT7 peptide (1 μg/mL) was added to each MC16-coated plastic well and binding of peptide to MC16 was detected by a peroxidase-conjugated streptavidin and peroxidase color reaction. […]

[2] = molecular target: T2, recombinant full-length ANXA1 (Homo sapiens, UniProt P04083); set-up: method as in PMID 32921792; conditions: IF7 with ANXA1; cited from earlier work
T2 construct: Recombinant, full-length ANXA1 was expressed using the baculovirus expression system; honeybee melittin signal peptide (N, cleaved yes); His8-tag (N, cleaved yes); made in house; host or cells: Sf9 insect cells (baculovirus), secreted
T2 sequence (P04083 1-346): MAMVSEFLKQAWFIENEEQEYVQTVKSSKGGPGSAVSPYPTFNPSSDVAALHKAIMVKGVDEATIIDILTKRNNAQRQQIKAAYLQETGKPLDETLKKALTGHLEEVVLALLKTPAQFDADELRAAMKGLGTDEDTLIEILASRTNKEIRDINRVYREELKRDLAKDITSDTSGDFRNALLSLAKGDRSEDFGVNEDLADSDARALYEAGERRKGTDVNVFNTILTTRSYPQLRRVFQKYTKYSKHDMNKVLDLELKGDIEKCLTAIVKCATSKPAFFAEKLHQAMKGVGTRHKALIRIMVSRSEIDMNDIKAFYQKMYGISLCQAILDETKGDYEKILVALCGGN

[3] = molecular target: T3, ANXA1 N-terminal peptide L-MC16 (Homo sapiens); experiment: plate binding assay (ELISA)
T3 chain: MAMVSEFLKQAWFIEC

Annexin A1 = molecular target: T4, Annexin A1 (Homo sapiens, UniProt P04083); experiment: QCM
T4 chain: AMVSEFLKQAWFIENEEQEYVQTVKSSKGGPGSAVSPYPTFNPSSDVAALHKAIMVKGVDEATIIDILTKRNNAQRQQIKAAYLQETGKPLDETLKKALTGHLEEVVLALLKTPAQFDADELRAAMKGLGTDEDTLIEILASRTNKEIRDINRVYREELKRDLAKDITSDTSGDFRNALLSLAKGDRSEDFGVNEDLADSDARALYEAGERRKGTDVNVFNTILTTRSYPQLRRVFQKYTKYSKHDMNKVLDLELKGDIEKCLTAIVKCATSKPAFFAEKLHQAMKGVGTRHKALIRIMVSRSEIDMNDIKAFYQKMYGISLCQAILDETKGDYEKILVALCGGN

Kd [1]: 8.5 nM and 8.56 nM
Molecule: CC[C@@H](C)[C@@H](NC(=O)[C@H](N)[C@H](C)O)C(=O)N[C@@H](C(=O)N[C@H](Cc1c[nH]c2ccccc12)C(=O)N1CCC[C@@H]1C(=O)N[C@@H](C(=O)N[C@H](CCSC)C(=O)O)[C@H](C)O)[C@H](C)O [dTIT7]

Kd [3]: 8.5 nM
Molecule: Biotin-[dT][dI][dT][dW][dP][dT][dM]

Kd (Annexin A1): 46.6 nM
Molecule: [dT][dI][dT][dW][dP][dT][dM]

Second part, the molecule before the results:

Molecule: CC(C)C[C@@H](NC(=O)[C@@H](CC(C)C)NC(=O)[C@@H](CO)NC(=O)[C@H](NC(=O)[C@H]1CCCN1C(=O)[C@H](N)CO)[C@H](C)O)C(=O)N[C@H](Cc1ccccc1)C(=O)O [dSPT7] (H-[dS][dP][dT][dS][dL][dL][dF]-OH; N-terminus and C-terminus assumed)
Localization of near infra-red fluorescence after intravenous injection (C6-Luc brain tumor): signals in brain, kidney and other organs

Molecule: CC(C)C[C@@H](N)C(=O)N[C@H](CC(C)C)C(=O)N[C@H](CO)C(=O)N[C@H](Cc1c[nH]c2ccccc12)C(=O)N1CCC[C@@H]1C(=O)N[C@H](CO)C(=O)N[C@H](C)C(=O)O [dLLS7] (H-[dL][dL][dS][dW][dP][dS][dA]-OH; N-terminus and C-terminus assumed)
Localization of near infra-red fluorescence after intravenous injection (C6-Luc brain tumor): signals in brain, kidney and other organs

Molecule: IFLLWQR (linear all-L peptide; any N-terminal Cys/linker or conjugate left out) [IF7]
Kd [2]: 63.8 nM

Molecule: CSCC[C@@H](N)C(=O)N1CCC[C@@H]1C(=O)N[C@@H](C(=O)N[C@H](CC(C)C)C(=O)N[C@@H](C(=O)N[C@H](Cc1ccccc1)C(=O)N[C@H](CCCNC(=N)N)C(=O)O)[C@H](C)O)[C@H](C)O [dMPT7] (H-[dM][dP][dT][dL][dT][dF][dR]-OH; N-terminus and C-terminus assumed)
Localization of near infra-red fluorescence after intravenous injection (C6-Luc brain tumor): signals in brain, kidney and other organs

Molecule: [dL][dR][dF][dP][dT][dV][dL] [dLRF7]
Kd (Annexin A1): 31.2 nM
